The target of one assay is T1, human CYP11B2 (Homo sapiens, UniProt P19099).
T1 construct: expressed in transfected cells
T1 sequence (P19099 25-503): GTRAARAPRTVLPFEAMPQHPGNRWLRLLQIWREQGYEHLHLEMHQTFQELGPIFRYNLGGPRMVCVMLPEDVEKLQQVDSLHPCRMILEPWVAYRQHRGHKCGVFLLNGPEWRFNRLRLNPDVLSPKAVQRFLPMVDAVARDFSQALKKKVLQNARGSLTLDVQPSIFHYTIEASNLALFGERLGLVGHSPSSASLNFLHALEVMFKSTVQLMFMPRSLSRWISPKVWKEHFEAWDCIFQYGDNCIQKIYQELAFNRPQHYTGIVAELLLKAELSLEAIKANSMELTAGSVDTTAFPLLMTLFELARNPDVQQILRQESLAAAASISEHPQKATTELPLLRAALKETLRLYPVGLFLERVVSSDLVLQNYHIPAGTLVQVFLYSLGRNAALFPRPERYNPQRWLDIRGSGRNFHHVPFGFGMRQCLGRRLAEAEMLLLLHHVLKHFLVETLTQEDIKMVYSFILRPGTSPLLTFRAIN
Kind of assay: G-402 cellular enzyme assay, human CYP11B2 (aldosterone release, HTRF). The format is cell-based. Conditions: G-402 cells, 1 μM Deoxycorticosterone. Summed up: (§1)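 G-402 cells stably expressing human CYP11B1 or CYP11B2 incubated 16 h in DMEM/F12 with 2.5% charcoal-treated FCS, compound, and 1 μM 11-deoxycortisol (B1) or 1 μM deoxycorticosterone (B2). Cortisol (B1) or aldosterone (B2) in supernatant measured by HTRF; EC50 from 4-parameter MMF fit.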

The next assay concerns the target T2, human CYP11B1 (Homo sapiens, UniProt P15538).
T2 construct: expressed in transfected cells
T2 sequence (P15538 25-503): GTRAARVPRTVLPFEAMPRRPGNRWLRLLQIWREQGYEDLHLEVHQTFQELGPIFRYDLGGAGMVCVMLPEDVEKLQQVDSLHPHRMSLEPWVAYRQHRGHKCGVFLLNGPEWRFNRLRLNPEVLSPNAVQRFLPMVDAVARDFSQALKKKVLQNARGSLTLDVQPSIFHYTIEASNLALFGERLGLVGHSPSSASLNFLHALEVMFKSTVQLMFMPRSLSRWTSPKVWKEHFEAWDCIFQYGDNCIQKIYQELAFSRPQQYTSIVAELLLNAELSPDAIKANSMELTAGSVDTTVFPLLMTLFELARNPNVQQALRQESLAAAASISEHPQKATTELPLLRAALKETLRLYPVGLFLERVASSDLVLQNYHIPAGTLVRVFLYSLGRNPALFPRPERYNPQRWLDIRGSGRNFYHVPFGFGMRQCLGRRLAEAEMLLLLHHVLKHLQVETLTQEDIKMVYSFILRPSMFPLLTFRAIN
Kind of assay: G-402 cellular enzyme assay, human CYP11B1 (cortisol release, HTRF). As to conditions: G-402 cells, 1 μM Deoxycortisol. Type of assay: cell-based. Summed up: as §1

On to `O=C1c2ccc(Cl)cc2CCN1c1cncc(CN2CCC[C@H]2CO)c1` [Example 149, 6-Chloro-2-[5-((S)-2-hydroxymethyl-pyrrolidin-1-ylmethyl)-pyridin-3-yl]-3,4-dihydro-2H-isuquinolin-1-one], for which the figures for the EC50 at human CYP11B2 and on human CYP11B1 were 0.126 µM and 1.92 µM, respectively.

For the compound `COC[C@@H]1CCCN1Cc1cncc(N2Cc3cc(Cl)ccc3C2=O)c1` [Example 113, 5-Chloro-2-[5-((S)-2-methoxymethyl-pyrrolidin-1-ylmethyl)-pyridin-3-yl]-2,3-dihydro-isoindol-1-one], the half-maximal effective concentration (EC50) on human CYP11B2 worked out at 0.342 µM; at human CYP11B1 it was 1.36 µM.

For the compound `O=C1c2ccc(Cl)cc2CCN1c1cncc(CN2CC[C@@H](O)C2)c1` [Example 147, 6-Chloro-2-[5-((R)-3-hydroxy-pyrrolidin-1-ylmethyl)-pyridin-3-yl]-3,4-dihydro-2H-isoquinolin-1-one], the 50% effective concentration (EC50) was found to be 0.0367 µM on human CYP11B2 and 0.247 µM at human CYP11B1.

As to `Cn1ncc(C#N)c1-c1cncc(N2CCc3cc(Cl)ccc3C2=O)c1` [Example 246, 5-[5-(6-Chloro-1-oxo-3,4-dihydro-1H-isoquinolin-2-yl)-pyridin-3-yl]-1-methyl-1H-pyrazole-4-carbonitrile], the EC50 on human CYP11B2 is 0.102 µM; on human CYP11B1, 0.546 µM.

As for `COC(C)(C)c1cncc(N2CCc3cc(Cl)ccc3C2=O)c1` [Example 24, 6-Chloro-2-[5-(1-methoxy-1-methyl-ethyl)-pyridin-3-yl]-3,4-dihydro-2H-isoquinolin-1-one], the concentration for a half-maximal effect (EC50) on human CYP11B2 is 0.0056 µM; at human CYP11B1, 0.0214 µM.

With `CCC(=O)N[C@H]1CCCc2c1cncc2N1C(=O)c2ccc(Cl)cc2[C@@H]1C` (single isomer, unassigned) [Example 362, N-[(S or R)-4-((S or R)-5-Chloro-3-methyl-1-oxo-1,3-dihydro-isoindol-2-yl)-5,6,7,8-tetrahydro-isoquinolin-8-yl]-propionamide], the EC50 at human CYP11B2 worked out at 0.0532 µM; on human CYP11B1 it was 6.09 µM.

Consider `COc1cncc(N2CCc3cc(Cl)ccc3C2=O)c1` [Example 10, 6-Chloro-2-(5-methoxy-pyridin-3-yl)-3,4-dihydro-2H-isoquinolin-1-one], for which the results for the EC50 at human CYP11B2 and on human CYP11B1 were 0.026 µM and 0.822 µM, respectively.

Turning to `O=C1c2ccc(Cl)cc2CCN1c1cncc(C(O)c2ccc(F)c(F)c2)c1` (stereo not shown) [Example 31, 6-Chloro-2-{5-[(3,4-difluoro-phenyl)-hydroxy-methyl]-pyridin-3-yl}-3,4-dihydro-2H-isoquinolin-1-one], the figures for the EC50 at human CYP11B2 and on human CYP11B1 were 0.0502 µM and 0.328 µM, respectively.

With `CC(=O)NC1CCCc2c1cncc2N1C(=O)c2ccc(Cl)cc2C1(C)C` (single isomer, unassigned) [Example 467, N—[(R or S)-4-(6-Chloro-1,1-dimethyl-3-oxo-1,3-dihydro-isoindol-2-yl)-5,6,7,8-tetrahydro-isoquinolin-8-yl]-acetamide], the values for the 50% effective concentration (EC50) at human CYP11B2 and at human CYP11B1 were 0.0288 µM and 2.18 µM, respectively.

As for `Cn1ncc(Cl)c1-c1cncc(N2C(=O)c3ccc(Cl)cc3C2(C)C)c1` [Example 427, 5-Chloro-2-[5-(4-chloro-2-methyl-2H-pyrazol-3-yl)-pyridin-3-yl]-3,3-dimethyl-2,3-dihydro-isoindol-1-one], the results for the half-maximal effective concentration (EC50) at human CYP11B2 and at human CYP11B1 were 0.0024 µM and 0.0472 µM, respectively.

As for `CC[C@@H]1c2cc(Cl)ccc2C(=O)N1c1cncc2c1CCC[C@@H]2NC(C)=O` (single isomer, unassigned) [Example 355, N-[(S or R)-4-((R or S)-5-Chloro-3-ethyl-1-oxo-1,3-dihydro-isoindol-2-yl)-5,6,7,8-tetrahydro-isoquinolin-8-yl]-acetamide], the values for the EC50 at human CYP11B2 and at human CYP11B1 were 0.0153 µM and 8.17 µM, respectively.

As to `CC(=O)NC1CCc2c1cncc2N1CCc2cc(Cl)ccc2C1=O` (single isomer, unassigned) [Example 333, N-[(S or R)-4-(6-Chloro-1-oxo-3,4-dihydro-1H-isoquinolin-2-yl)-6,7-dihydro-5H-[2]pyrindin-7-yl]-acetamide], the values for the EC50 at human CYP11B2 and at human CYP11B1 were 0.0958 µM and 5.24 µM, respectively.

Regarding `CC(c1cncc(N2CCc3cc(Cl)ccc3C2=O)c1)N1CCOC1=O` (stereo not shown) [Example 275, 6-Chloro-2-{5-[1-(2-oxo-oxazolidin-3-yl)-ethyl]-pyridin-3-yl}-3,4-dihydro-2H-isoquinolin-1-one], the EC50 was determined as 0.731 µM at human CYP11B2 and 7.82 µM on human CYP11B1.

Regarding `CC1(C)c2cc(Cl)ccc2C(=O)N1c1cncc(CN2CCCC2=O)c1` [Example 413, 5-Chloro-3,3-dimethyl-2-[5-(2-oxo-pyrrolidin-1-ylmethyl)-pyridin-3-yl]-2,3-dihydro-isoindol-1-one], the EC50 on human CYP11B2 is 0.0207 µM; on human CYP11B1, 0.813 µM.

As for `CC1(C)c2cc(Cl)ccc2C(=O)N1c1cncc(CNC(=O)c2ccncc2Cl)c1` [Example 437, 3-Chloro-N-[5-(6-chloro-1,1-dimethyl-3-oxo-1,3-dihydro-isoindol-2-yl)-pyridin-3-ylmethyl]-isonicotinamide], the EC50 on human CYP11B2 was 0.0776 µM; on human CYP11B1 it was 1.64 µM.

Regarding `CC1(C)c2cc(Cl)ccc2C(=O)N1c1cncc(Cn2ccc(N)n2)c1` [Example 380, 2-[5-(3-Amino-pyrazol-1-ylmethyl)-pyridin-3-yl]-5-chloro-3,3-dimethyl-2,3-dihydro-isoindol-1-one], the EC50 worked out at 0.0366 µM at human CYP11B2 and 2.42 µM at human CYP11B1.

Take `CCC(=O)NC1CCCc2c1cncc2N1CCc2cc(Cl)ccc2C1=O` (single isomer, unassigned) [Example 328, N-((R or S)-6-Chloro-1-oxo-3,4,5′,6′,7′,8′-hexahydro-1H-[2,4′]biisoquinolinyl-8′-yl)-propionamide]: the half-maximal effective concentration (EC50) at human CYP11B2 was 0.173 µM; on human CYP11B1 it was 18.4 µM.

Consider `CCOC(=O)c1nccn1Cc1cncc(N2CCc3cc(Cl)ccc3C2=O)c1` [Example 162, 1-[5-(6-Chloro-1-oxo-3,4-dihydro-1H-isoquinolin-2-yl)-pyridin-3-ylmethyl]-1H-imidazole-2-carboxylic acid ethyl ester], for which the EC50 at human CYP11B2 amounted to 0.187 µM; at human CYP11B1 it was 2 µM.

As to `Cc1noc(C)c1Cc1cncc(N2CCc3cc(Cl)ccc3C2=O)c1` [Example 204, 6-Chloro-2-[5-(3,5-dimethyl-isoxazol-4-ylmethyl)-pyridin-3-yl]-3,4-dihydro-2H-isoquinolin-1-one], the EC50 turned out to be 0.0408 µM on human CYP11B2 and 0.9 µM at human CYP11B1.

Regarding `Cn1cncc1C(=O)NCc1cncc(N2C(=O)c3ccc(Cl)cc3C2(C)C)c1` [Example 435, 3-Methyl-3H-imidazole-4-carboxylic acid [5-(6-chloro-1,1-dimethyl-3-oxo-1,3-dihydro-isoindol-2-yl)-pyridin-3-ylmethyl]-amide], the concentration for a half-maximal effect (EC50) on human CYP11B2 is 0.0088 µM; at human CYP11B1 it was 0.256 µM.

Consider `CCS(=O)(=O)NCc1cncc(N2C(=O)c3ccc(F)cc3C23CC3)c1` [Example 393, N-{[5-(6′-Fluoro-3′-oxospiro [cyclopropane-1,1′-isoindol]-2′(3′H)-yl)pyridin-3-yl]methyl} ethane-sulfonamide], for which the results for the EC50 on human CYP11B2 and on human CYP11B1 were 0.265 µM and 8.43 µM, respectively.

In the case of `O=C1c2ccc(Cl)cc2CCN1c1cncc(CN2CC[C@H](O)C2)c1` [Example 148, 6-Chloro-2-[5-((S)-3-hydroxy-pyrrolidin-1-ylmethyl)-pyridin-3-yl]-3,4-dihydro-2H-isoquinolin-1-one], the EC50 on human CYP11B2 came to 0.0451 µM; on human CYP11B1, 0.139 µM.

`O=C1c2ccc(Cl)cc2CCN1c1cncc(Cn2cncn2)c1` [Example 180, 6-Chloro-2-(5-[1,2,4]triazol-1-ylmethyl-pyridin-3-yl)-3,4-dihydro-2H-isoquinolin-1-one]: the EC50 at human CYP11B2 is 0.123 µM; on human CYP11B1, 0.802 µM.

Regarding `COc1cncc(N2C(=O)c3ccc(Cl)cc3C2(C)C)c1` [Example 130, 5-Chloro-2-(5-methoxy-pyridin-3-yl)-3,3-dimethyl-2,3-dihydro-isoindol-1-one], the EC50 stood at 0.0155 µM at human CYP11B2 and 0.24 µM on human CYP11B1.

Turning to `O=C1c2ccc(Cl)cc2CN1c1cccnc1` [Example 108, 5-Chloro-2-pyridin-3-yl-2,3-dihydro-isoindol-1-one], the values for the EC50 on human CYP11B2 and at human CYP11B1 were 0.163 µM and 9.78 µM, respectively.

In the case of `CCC(=O)N1CCCC(c2cncc(N3C(=O)c4ccc(Cl)cc4C3(C)C)n2)C1` (stereo not shown) [Example 463, 5-Chloro-3,3-dimethyl-2-[6-(1-propionyl-piperidin-3-yl)-pyrazin-2-yl]-2,3-dihydro-isoindol-1-one], the EC50 on human CYP11B2 came out at 0.0471 µM; on human CYP11B1 it was 0.932 µM.
